Assay [1] has as its system Nmb-induced mechanical hypersensitivity in mice. The experiment in a line: Nmb-induced mechanical hypersensitivity, effect of pretreatment (Figure 7C). The conditions noted are these: intra-TG TTA-P2 1 nmol prior to 1 nmol Nmb; 1 h; n = 8 - 10. It is filed as in vivo, mouse. How it is done:
Mice were housed on a 12 h light/dark cycle, maintained in a humidity- and temperature-controlled room with water available ad libitum and were acclimated to the experimenter for 2 d before the first behavioural observations. Experimenters were blinded to the treatment or genotypes of the mice. As described previously, [31], an Orofacial Stimulation Test (Ugo Basile, Italy) was used for the measurement of hypersensitivity to the mechanical stimulation of the trigeminal area. Briefly, the mice initially underwent one week of adaptation trainings after a 12 h fasting food period. Each mouse was then placed in a cage in which there was an Orofacial Stimulation Test system. […] The contact number and total duration of time the mouse spent acquiring the reward were analyzed with the ORO software.
For experiments that several time points are needed to be checked in 24 h, von Frey test was used, as orofacial stimulation test can be checked only once a day, [32]. […] Mechanical hypersensitivity was assessed as described in previous studies, [33]. In brief, the threshold was assessed with a set of von Frey hairs (0.02-2.56 g, Stoelting) applied to the whisker pad in an ascending series of trials, with three separate von Frey stimulations applied per series. The threshold was determined when mice moved their heads away briskly and strongly from at least one of the three stimuli. […]

The subject of assay [2] is CFA-induced mechanical allodynia in mice. The assay is described as follows: CFA-induced inflammatory pain, mechanical allodynia. The conditions noted are these: rofecoxib 10 mg/kg (legend: 1 mg/kg, subcutaneous); 1 h; 2 d after CFA; n = 7 - 9. The format is in vivo, mouse. As to the method:
For experiments that several time points are needed to be checked in 24 h, von Frey test was used, as orofacial stimulation test can be checked only once a day, [32]. For the von Frey test, the mice were placed in metal mesh boxes and allowed 30 min for habituation before examination. Mechanical hypersensitivity was assessed as described in previous studies, [33]. In brief, the threshold was assessed with a set of von Frey hairs (0.02-2.56 g, Stoelting) applied to the whisker pad in an ascending series of trials, with three separate von Frey stimulations applied per series. The threshold was determined when mice moved their heads away briskly and strongly from at least one of the three stimuli. Dixon's up-down method was used to determine the 50% probability of escape threshold. For thermal test, a heat stimulus was applied to the maxillary whisker pad skin by radiant heat (IITC Life Science). Heat sensitivity was expressed as head-withdrawal latency (HWL). The radiant heat intensity was adjusted so that basal HWL is between 10-15 s, with a cut-off of 18 s to prevent tissue damage. Chronic inflammatory pain was induced by subcutaneous injection of 20 μL of complete Freund's adjuvant (CFA) into the left side of the buccal pad. […]

The target in assay [3] is Human neuromedin B receptor expressed in HEK293 cells (human) (UniProt P28336).
Sequence of Human neuromedin B receptor expressed in HEK293 cells (human) (P28336 whole entry): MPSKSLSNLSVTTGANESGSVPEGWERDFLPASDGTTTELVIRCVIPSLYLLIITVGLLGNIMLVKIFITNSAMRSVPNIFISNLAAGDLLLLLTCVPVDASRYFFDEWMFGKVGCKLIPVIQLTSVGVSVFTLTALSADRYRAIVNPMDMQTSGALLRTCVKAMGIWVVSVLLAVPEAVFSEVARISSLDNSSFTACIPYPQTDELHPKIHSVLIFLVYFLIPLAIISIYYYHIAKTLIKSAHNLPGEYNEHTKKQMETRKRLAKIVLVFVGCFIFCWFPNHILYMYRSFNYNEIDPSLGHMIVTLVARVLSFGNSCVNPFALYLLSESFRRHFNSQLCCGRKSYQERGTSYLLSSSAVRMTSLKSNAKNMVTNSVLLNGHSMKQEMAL

“Also recorded” adds a separate entry of the source.

Take `CC1(C)C[C@@H](CN2CCC(F)(CNC(=O)c3cc(Cl)cc(Cl)c3)CC2)CCO1` [TTA-P2]: in assay [1], the “effect on Nmb-induced mechanical hypersensitivity” value is “significantly attenuated mechanical hypersensitivity”. In the case of `CS(=O)(=O)c1ccc(C2=C(c3ccccc3)C(=O)OC2)cc1` [rofecoxib], the CFA-induced mechanical allodynia entry in assay [2] was “reversed; also recorded: reduced the mechanical allodynia”. Take Neuromedin B (peptide): the increase of Cav3.2 channel currents in HEK293 cells co-expressing human NmbR and Cav3.2, whole-cell patch clamp, dose-response of Nmb, EC50 in assay [3] is 47.6 nM.

The values above are taken from article PMC8490515, “Neuromedin B receptor stimulation of Cav3.2 T-type Ca^2+ channels in primary sensory neurons mediates peripheral pain hypersensitivity” (Theranostics, 2021).
